The source made the active and inactive calls. No cut-off for these calls is given here.
Assays:
[1] = Metabolic stability in rat liver microsome assessed as parent compound remaining at 1 uM incubated for 30 mins in presence of NADPH generating system by LC-MS/MS analysis; format: ADME; conditions: liver microsomes, read-out: Stabilty
[2] = target: T1, Steroid hormone receptor ERR1 (Homo sapiens, UniProt P11474); experiment: Binding affinity to GST-tagged ERRalpha LBD (unknown origin) using fluorescein PGC1alpha as coactivator incubated for 1 hr by LanthaScreen TR-FRET co-regulator assay
T1 sequence (P11474 whole entry): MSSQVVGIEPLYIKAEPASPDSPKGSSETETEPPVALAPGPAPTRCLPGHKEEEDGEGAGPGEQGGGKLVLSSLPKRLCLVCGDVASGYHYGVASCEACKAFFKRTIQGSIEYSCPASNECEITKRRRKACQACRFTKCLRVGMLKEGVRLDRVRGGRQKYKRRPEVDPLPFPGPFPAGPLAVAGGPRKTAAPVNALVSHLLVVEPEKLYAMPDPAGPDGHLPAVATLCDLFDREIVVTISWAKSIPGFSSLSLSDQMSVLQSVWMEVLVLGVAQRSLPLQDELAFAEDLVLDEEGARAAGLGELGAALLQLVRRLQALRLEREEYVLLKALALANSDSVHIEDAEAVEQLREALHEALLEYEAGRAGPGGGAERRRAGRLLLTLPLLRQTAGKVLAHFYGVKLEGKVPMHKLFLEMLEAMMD

Estrogen receptor = target: T2, Estrogen receptor (Homo sapiens, UniProt P03372); experiment: Binding affinity to GST-tagged ERalpha LBD (unknown origin) using fluorescein PGC1alpha as coactivator incubated for 1 hr by LanthaScreen TR-FRET co-regulator assay
T2 sequence (P03372 whole entry): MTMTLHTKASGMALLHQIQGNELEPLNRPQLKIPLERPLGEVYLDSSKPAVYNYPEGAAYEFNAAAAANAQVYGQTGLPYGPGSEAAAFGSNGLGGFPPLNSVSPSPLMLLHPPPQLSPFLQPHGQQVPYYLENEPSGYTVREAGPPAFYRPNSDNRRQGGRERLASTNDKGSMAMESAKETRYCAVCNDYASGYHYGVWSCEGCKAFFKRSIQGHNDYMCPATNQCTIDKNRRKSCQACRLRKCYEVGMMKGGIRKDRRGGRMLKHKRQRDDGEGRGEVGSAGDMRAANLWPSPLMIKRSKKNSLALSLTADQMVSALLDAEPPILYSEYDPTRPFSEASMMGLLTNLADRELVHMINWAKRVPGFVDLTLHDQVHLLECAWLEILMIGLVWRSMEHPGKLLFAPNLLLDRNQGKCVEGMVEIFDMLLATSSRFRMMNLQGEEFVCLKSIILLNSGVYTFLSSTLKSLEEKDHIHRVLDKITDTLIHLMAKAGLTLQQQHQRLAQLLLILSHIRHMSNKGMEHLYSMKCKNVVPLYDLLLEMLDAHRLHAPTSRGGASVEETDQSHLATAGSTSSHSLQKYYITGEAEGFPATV

[3] = Effective permeability of compound at 10 uM in PBS buffer at pH 7.4 after 5 hrs by LC-MS/MS analysis based PAMPA method; format: ADME; conditions: read-out: Peff
[4] = target: T3, Steroid hormone receptor ERR2 (Homo sapiens, UniProt O95718); experiment: Binding affinity to GST-tagged ERRbeta LBD (unknown origin) using fluorescein PGC1alpha as coactivator incubated for 1 hr by LanthaScreen TR-FRET co-regulator assay
T3 sequence (O95718 whole entry): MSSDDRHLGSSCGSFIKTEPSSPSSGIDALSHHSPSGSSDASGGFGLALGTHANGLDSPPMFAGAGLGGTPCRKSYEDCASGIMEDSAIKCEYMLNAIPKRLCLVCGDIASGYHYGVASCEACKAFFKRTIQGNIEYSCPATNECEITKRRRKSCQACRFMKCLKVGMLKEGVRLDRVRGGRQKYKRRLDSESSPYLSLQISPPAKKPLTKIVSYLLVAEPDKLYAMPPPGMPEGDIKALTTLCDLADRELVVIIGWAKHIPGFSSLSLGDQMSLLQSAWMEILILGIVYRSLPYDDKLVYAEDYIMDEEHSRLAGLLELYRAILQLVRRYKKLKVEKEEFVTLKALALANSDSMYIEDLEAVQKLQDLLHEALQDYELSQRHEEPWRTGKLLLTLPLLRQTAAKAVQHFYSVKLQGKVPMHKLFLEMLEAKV

CYP3A4 = CYP3A4 (Homo sapiens, UniProt P08684); experiment: Inhibition of CYP3A4 in human liver microsomes assessed as reduction in midazolam 1-hydroxylase activity at 10 uM preincubated for 5 mins followed by addition of NADPH-regenerating system and measured after 15 mins by LC-MS/MS analysis relative to control; format: ADME; conditions: probe midazolam (1-hydroxylase activity), time 20 min
CAL-62 [5] = experiment: Anticlonogenic activity against human CAL-62 cells assessed as colony forming units level in absence of [131I] at 20 uM incubated for 24 hrs by crystal violet staining based assay; format: ADME, cell-based; conditions: cal-62, 24 h
[6] = Metabolic stability in human liver microsome assessed as parent compound remaining at 1 uM incubated for 30 mins in presence of NADPH generating system by LC-MS/MS analysis; format: ADME; conditions: liver microsomes, read-out: Stabilty
CAL-62 [7] = experiment: Potentiation of radioiodine therapy-mediated cytotoxicity against human CAL-62 cells assessed as colony forming units level in presence of [131I] at 20 uM preincubated for 24 hrs followed by [131I] addition and measured after 6 hrs by crystal violet staining based assay (reference value: 97.5 +/- 2%); format: functional; conditions: time 30 hrs
CYP2D6 = CYP2D6 (Homo sapiens, UniProt P10635); experiment: Inhibition of CYP2D6 in human liver microsomes assessed as reduction in dextromethorphan O-demethylase activity at 10 uM preincubated for 5 mins followed by addition of NADPH-regenerating system and measured after 15 mins by LC-MS/MS analysis relative to control; format: ADME; conditions: probe dextromethorphan (O-demethylase activity), time 20 min
CYP2C9 = CYP2C9 (Homo sapiens, UniProt P11712); experiment: Inhibition of CYP2C9 in human liver microsomes assessed as reduction in tolbutamide 4-hydroxylase activity at 10 uM preincubated for 5 mins followed by addition of NADPH-regenerating system and measured after 15 mins by LC-MS/MS analysis relative to control; format: ADME; conditions: probe tolbutamide (4-hydroxylase activity), time 20 min
CYP2C19 = CYP2C19 (Homo sapiens, UniProt P33261); experiment: Inhibition of CYP2C19 in human liver microsomes assessed as reduction in S-mephenytoin 4-hydroxylase activity at 10 uM preincubated for 5 mins followed by addition of NADPH-regenerating system and measured after 15 mins by LC-MS/MS analysis relative to control; format: ADME; conditions: probe S-mephenytoin (4-hydroxylase activity), time 20 min
CYP1A2 = target: T4, CYP1A2 (Homo sapiens, UniProt P05177); experiment: Inhibition of CYP1A2 in human liver microsomes assessed as reduction in phenacetin O-deethylase activity at 10 uM preincubated for 5 mins followed by addition of NADPH-regenerating system and measured after 15 mins by LC-MS/MS analysis relative to control; format: ADME; conditions: probe phenacetin (O-deethylase activity), time 20 min
T4 sequence (P05177 whole entry): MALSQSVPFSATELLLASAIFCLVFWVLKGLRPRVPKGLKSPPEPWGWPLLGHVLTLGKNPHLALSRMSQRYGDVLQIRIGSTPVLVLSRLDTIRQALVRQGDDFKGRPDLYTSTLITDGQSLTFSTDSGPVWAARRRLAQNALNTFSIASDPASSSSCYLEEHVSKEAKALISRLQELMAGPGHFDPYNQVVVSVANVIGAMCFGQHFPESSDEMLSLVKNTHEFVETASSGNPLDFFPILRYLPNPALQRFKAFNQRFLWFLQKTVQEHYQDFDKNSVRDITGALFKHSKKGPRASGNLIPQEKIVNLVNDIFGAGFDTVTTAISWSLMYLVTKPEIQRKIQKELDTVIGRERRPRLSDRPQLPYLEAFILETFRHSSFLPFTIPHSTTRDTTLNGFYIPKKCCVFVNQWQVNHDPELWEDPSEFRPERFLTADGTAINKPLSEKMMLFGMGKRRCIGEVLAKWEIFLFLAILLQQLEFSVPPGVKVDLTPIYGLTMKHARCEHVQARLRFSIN

[8] = target: T5, Estrogen-related receptor gamma (Homo sapiens, UniProt P62508)
T5 sequence (P62508 whole entry): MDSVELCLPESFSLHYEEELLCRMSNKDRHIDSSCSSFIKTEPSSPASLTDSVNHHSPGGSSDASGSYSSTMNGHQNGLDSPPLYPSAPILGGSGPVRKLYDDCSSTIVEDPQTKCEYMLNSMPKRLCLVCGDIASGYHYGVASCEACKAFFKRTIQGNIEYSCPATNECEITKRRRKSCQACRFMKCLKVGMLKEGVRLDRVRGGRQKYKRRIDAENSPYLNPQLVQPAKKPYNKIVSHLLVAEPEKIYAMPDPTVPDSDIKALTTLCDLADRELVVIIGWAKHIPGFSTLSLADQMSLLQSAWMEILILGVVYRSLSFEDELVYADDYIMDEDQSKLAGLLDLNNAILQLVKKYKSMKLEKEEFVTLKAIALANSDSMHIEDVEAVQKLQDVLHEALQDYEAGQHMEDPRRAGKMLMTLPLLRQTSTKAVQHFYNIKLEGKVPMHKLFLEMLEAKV

[9] = target: Voltage-gated inwardly rectifying potassium channel KCNH2 (Homo sapiens, UniProt Q12809); experiment: (§1) Inhibition of human ERG measured after 4 hrs by fluorescence polarization assay
hERG (KCNH2) = hERG (KCNH2) (Homo sapiens, UniProt Q12809); experiment: as §1; conditions: human
CAL-62 [10] = experiment: Antiproliferative activity against human CAL-62 cells at 10 uM assessed as reduction in cell proliferation; format: functional, cell-based
[11] = Oral bioavailability in Sprague-Dawley rat at 10 mg/kg, administered via gavage measured upto 8 hrs by LC-MS/MS analysis; format: ADME, organism-based; conditions: in vivo
[12] = Clearance in Sprague-Dawley rat at 10 mg/kg, po or 1 mg/kg, iv measured upto 8 hrs by LC-MS/MS analysis; format: ADME, organism-based; conditions: in vivo
[13] = Volume of distribution at steady state in Sprague-Dawley rat at 10 mg/kg, po or 1 mg/kg, iv measured upto 8 hrs by LC-MS/MS analysis; format: ADME, organism-based; conditions: in vivo, read-out: Vdss
[14] = Half-life in Sprague-Dawley rat at 10 mg/kg, po or 1 mg/kg, iv measured upto 8 hrs by LC-MS/MS analysis; format: ADME, organism-based; conditions: in vivo
CAL-62 [15] = experiment: Antiproliferative activity against human CAL-62 cells at 20 uM assessed as reduction in cell proliferation; format: functional, cell-based

CYP2C9, sequence (P11712 whole entry): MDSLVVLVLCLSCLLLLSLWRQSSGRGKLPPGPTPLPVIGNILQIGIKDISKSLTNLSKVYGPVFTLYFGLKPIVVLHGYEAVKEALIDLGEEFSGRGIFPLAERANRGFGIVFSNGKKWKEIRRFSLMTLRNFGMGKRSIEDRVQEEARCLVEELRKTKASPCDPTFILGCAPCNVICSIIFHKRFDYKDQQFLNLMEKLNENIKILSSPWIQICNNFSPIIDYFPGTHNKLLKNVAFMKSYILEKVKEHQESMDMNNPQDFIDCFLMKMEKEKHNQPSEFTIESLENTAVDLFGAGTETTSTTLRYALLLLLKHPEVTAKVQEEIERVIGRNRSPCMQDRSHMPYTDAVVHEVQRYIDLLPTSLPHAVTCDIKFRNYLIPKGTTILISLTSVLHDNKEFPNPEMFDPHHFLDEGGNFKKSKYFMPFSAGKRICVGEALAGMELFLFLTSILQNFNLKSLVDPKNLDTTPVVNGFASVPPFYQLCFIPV
CYP2D6, sequence (P10635 whole entry): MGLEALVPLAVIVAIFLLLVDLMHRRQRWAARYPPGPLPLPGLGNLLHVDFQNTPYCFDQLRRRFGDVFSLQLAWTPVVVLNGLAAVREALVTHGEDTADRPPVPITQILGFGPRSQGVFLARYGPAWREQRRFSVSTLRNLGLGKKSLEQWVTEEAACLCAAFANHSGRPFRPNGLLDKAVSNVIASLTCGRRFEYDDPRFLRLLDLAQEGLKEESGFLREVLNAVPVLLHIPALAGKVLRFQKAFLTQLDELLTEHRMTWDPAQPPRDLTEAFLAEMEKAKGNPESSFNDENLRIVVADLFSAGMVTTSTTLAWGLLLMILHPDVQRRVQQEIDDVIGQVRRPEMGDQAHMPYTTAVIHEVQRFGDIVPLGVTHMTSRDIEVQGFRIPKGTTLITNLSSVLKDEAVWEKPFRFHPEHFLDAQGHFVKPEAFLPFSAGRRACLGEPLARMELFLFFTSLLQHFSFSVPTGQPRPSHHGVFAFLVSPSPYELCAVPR
CYP2C19, sequence (P33261 whole entry): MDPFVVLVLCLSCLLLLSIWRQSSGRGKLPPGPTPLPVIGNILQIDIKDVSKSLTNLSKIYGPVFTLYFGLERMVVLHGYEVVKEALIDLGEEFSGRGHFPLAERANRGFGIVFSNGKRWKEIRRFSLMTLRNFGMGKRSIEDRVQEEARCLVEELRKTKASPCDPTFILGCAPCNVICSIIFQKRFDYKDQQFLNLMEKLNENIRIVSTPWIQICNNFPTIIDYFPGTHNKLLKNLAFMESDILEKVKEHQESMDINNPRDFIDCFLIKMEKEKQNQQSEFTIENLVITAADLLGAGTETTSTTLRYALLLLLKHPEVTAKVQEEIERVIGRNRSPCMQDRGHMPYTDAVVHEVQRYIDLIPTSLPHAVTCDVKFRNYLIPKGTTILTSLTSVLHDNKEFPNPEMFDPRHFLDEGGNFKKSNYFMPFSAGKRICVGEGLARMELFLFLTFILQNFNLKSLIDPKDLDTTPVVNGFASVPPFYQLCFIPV
CYP3A4, sequence (P08684 whole entry): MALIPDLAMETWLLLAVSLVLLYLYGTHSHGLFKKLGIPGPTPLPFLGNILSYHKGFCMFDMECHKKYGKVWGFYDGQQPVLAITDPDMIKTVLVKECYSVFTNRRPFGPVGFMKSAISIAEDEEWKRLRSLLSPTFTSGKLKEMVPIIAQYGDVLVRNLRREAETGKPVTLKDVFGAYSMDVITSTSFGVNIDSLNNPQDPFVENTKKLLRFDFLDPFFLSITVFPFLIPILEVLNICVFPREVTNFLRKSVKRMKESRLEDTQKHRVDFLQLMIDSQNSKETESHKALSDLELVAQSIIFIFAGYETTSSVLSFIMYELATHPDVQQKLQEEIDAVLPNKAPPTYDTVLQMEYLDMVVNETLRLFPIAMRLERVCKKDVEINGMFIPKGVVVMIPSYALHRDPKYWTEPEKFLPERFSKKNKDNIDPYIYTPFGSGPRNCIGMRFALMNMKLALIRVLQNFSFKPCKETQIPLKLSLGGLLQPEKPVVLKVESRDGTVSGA
Voltage-gated inwardly rectifying potassium channel KCNH2, sequence (Q12809 whole entry): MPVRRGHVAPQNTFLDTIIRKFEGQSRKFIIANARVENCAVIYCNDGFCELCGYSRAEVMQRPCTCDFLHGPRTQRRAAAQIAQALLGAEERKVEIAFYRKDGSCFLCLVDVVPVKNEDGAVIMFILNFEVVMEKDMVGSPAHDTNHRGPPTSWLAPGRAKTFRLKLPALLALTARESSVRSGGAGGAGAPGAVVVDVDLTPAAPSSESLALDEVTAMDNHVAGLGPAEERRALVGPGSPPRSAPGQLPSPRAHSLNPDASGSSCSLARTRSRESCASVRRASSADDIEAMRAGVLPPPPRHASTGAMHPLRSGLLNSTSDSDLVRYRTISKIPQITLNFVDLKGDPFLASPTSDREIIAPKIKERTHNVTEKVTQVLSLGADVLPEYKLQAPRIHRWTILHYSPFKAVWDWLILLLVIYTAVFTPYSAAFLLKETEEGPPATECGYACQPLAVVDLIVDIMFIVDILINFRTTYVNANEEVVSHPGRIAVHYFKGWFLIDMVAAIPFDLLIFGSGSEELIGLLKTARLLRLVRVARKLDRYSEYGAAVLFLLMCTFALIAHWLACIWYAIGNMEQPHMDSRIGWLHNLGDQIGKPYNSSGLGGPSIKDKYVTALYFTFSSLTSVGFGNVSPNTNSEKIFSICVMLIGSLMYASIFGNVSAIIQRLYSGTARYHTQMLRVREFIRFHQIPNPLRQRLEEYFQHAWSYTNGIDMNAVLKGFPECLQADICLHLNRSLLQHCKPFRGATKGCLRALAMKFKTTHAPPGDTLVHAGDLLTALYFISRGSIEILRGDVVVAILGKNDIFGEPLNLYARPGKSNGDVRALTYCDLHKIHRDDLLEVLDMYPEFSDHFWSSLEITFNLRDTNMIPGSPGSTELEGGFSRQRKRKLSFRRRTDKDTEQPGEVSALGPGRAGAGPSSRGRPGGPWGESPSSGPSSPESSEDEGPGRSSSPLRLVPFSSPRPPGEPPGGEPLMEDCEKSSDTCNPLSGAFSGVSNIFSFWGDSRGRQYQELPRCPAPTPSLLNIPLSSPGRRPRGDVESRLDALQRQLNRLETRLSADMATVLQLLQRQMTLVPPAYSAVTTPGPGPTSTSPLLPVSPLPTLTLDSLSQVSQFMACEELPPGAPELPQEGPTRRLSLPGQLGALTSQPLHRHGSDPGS
hERG (KCNH2), sequence (Q12809 whole entry): as above

Structure (SMILES) | remaining at 0.5 h, 1 µM [1] | IC50 [2] | IC50 (Estrogen receptor) | Papp at 5 h, 10 µM [3] | IC50 [4] | inhibition at 0.25 h, 10 µM (CYP3A4) | remaining at 0.5 h, 1 µM [6] | inhibition at 0.25 h, 10 µM (CYP2D6) | inhibition at 0.25 h, 10 µM (CYP2C9) | inhibition at 0.25 h, 10 µM (CYP2C19) | inhibition at 0.25 h, 10 µM (CYP1A2) | IC50 [8] | IC50 [9] | clearance [12] | other results
CN1CCC[C@H]1COc1ccc(/C(=C(/CCCO)c2ccccc2)c2ccc(O)cc2)cc1.Cl | 30.3% | > 10 µM | 1060 nM | 2.11 ×10⁻⁶ cm/s | 3.99 µM | 24.6% | 24.8% | 9.3% | 37.2% | 16.8% | 0% | – | – | – | Activity (CAL-62 [5]): 93%; Activity (CAL-62 [7]): 67.4%
CN1CCCC1CCOc1ccc(/C(=C(/CCCO)c2ccccc2)c2ccc(Br)cc2)cc1.Cl (stereo unspecified) | 59.9% | 5.14 µM | 2970 nM | 0.21 ×10⁻⁶ cm/s | 8.88 µM | 9.8% | 67.3% | 0% | 3% | 10.6% | 0% | 296 nM | 1.7 µM | – | –
CN1CCCC1CCOc1ccc(/C(=C(/CCCO)c2ccccc2)c2ccc(O)cc2)cc1.Cl (stereo unspecified) | 22.5% | > 10 µM | – | 0.01 ×10⁻⁶ cm/s | 6.01 µM | 16.3% | 37.3% | 18.3% | 24.6% | 18.2% | 2.1% | 20 nM | – | – | –
CN1CCC[C@@H]1COc1ccc(/C(=C(/CCCO)c2ccccc2)c2ccc(O)cc2)cc1.Cl | 27.7% | > 10 µM | 3760 nM | 0.7 ×10⁻⁶ cm/s | > 10 µM | 20.6% | 29% | 6.4% | 13.3% | 17.4% | 1.9% | – | – | – | IC50 at 4 h (hERG (KCNH2)): > 30 µM
CN1CCC[C@H]1COc1ccc(/C(=C(/CCCO)c2ccccc2)c2ccc(Br)cc2)cc1.Cl | 66.2% | – | – | 0.93 ×10⁻⁶ cm/s | – | 55% | 61.2% | 35.6% | 37.3% | 30.5% | 9.6% | – | 4.7 µM | 74.4 mL/min/kg | Activity (CAL-62 [10]): inactive; bioavailability [11]: 38.2%; Vd [13]: 16.1 L/kg; half-life [14]: 204 min; Activity (CAL-62 [15]): Active
CN(C)CCOc1ccc(/C(=C(/CCCO)c2ccccc2)c2ccc(O)cc2)cc1 | – | – | – | 0.23 ×10⁻⁶ cm/s | – | 17% | – | 17.7% | 27.1% | 21.8% | 16.4% | – | – | 45.6 mL/min/kg | –

From ChEMBL document CHEMBL4680094, “Insights of a Lead Optimization Study and Biological Evaluation of Novel 4-Hydroxytamoxifen Analogs as Estrogen-Related Receptor γ (ERRγ) Inverse Agonists” (J Med Chem, 2016)
